Results as given in ChEMBL document CHEMBL1201862, “PubChem BioAssay data set” (2004).
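Briefly, cells in 96-well plates were exposed to five compound concentrations for 48 h, and endpoints were estimated by linear interpolation. At the GI50, growth is halved.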 Active and inactive are the calls of the source. Cut-off read from the data, not from the text of the source: active = GI50 up to about 1.1 µM and inactive = higher.

Columns and labels:
Assay in all cases: NCI-60 cell line screen, 48 h
OVCAR-5 = tested on: OVCAR-5
MDA-MB-231 = tested on: MDA-MB-231
MOLT-4 = tested on: MOLT-4
SK-OV-3 = tested on: SK-OV-3
MDA-MB-435 = tested on: MDA-MB-435
ACHN = tested on: ACHN
U-251 = tested on: U-251
IGROV-1 = tested on: IGROV-1
OVCAR-4 = tested on: OVCAR-4
CCRF-CEM = tested on: CCRF-CEM
SK-MEL-28 = tested on: SK-MEL-28
HL-60 = tested on: HL-60
T47D = tested on: T47D
SK-MEL-2 = tested on: SK-MEL-2
UACC-257 = tested on: UACC-257
NCI-H226 = tested on: NCI-H226
HOP-92 = tested on: HOP-92
Malme-3M = tested on: Malme-3M
MCF7 = tested on: MCF7
HCC 2998 = tested on: HCC 2998

## O=C1/C(=C/c2ccc(O)cc2)CC/C1=C\c1ccc(O)cc1
OVCAR-5
  GI50: > 100 µM (inactive)
MDA-MB-231
  GI50: > 100 µM (inactive)
MOLT-4
  GI50: 7.14 µM (inactive)
SK-OV-3
  GI50: > 100 µM (inactive)
MDA-MB-435
  GI50: > 100 µM (inactive)
ACHN
  GI50: 6.31 µM (inactive)
U-251
  GI50: 53.1 µM (inactive)
IGROV-1
  GI50: > 100 µM (inactive)
OVCAR-4
  GI50: > 64.3 µM (inactive)
CCRF-CEM
  GI50: 1.52 µM (inactive)
SK-MEL-28
  GI50: > 100 µM (inactive)
HL-60
  GI50: 0.458 µM (active)
T47D
  GI50: > 95.1 µM (inactive)
SK-MEL-2
  GI50: > 100 µM (inactive)
UACC-257
  GI50: > 100 µM (inactive)
NCI-H226
  GI50: > 100 µM (inactive)
HOP-92
  GI50: > 68.9 µM (inactive)
Malme-3M
  GI50: > 72.6 µM (inactive)
MCF7
  GI50: > 100 µM (inactive)
HCC 2998
  GI50: > 100 µM (inactive)
